According to article PMC8449059, “Structural and functional variation of chitin-binding domains of a lytic polysaccharide monooxygenase from Cellvibrio japonicus” (The Journal of Biological Chemistry, 2021):

Target: T1, CjCBM5 (family 5 carbohydrate-binding module of CjLPMO10A) (Cellvibrio japonicus, UniProt B3PJ79)
T1 construct: gene cbp33A; isolated CBM5 domain, residues 251-309 of 397; extra N-terminal Met, C-terminal Ala + 6xHis tag kept; 15N-labelled; E. coli cytoplasmic expression (pNIC-CH)
T1 sequence (B3PJ79 entry or part of it): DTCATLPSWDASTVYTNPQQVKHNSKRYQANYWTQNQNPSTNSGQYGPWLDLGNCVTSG
Test: NMR titration, […]-HSQC chemical shift perturbation
Conditions: 50 mM sodium phosphate, pH 7.0, 10% D2O; 70 uM 15N-labelled protein; average of W283, T284, Q285, Y296, G297

Which Kd does the source give for CC(=O)N[C@H]1[C@H](O[C@H]2[C@H](O)[C@@H](NC(C)=O)C(O[C@H]3[C@H](O)[C@@H](NC(C)=O)C(O[C@H]4[C@H](O)[C@@H](NC(C)=O)C(O[C@H]5[C@H](O)[C@@H](NC(C)=O)C(O[C@H]6[C@H](O)[C@@H](NC(C)=O)C(O)O[C@@H]6CO)O[C@@H]5CO)O[C@@H]4CO)O[C@@H]3CO)O[C@@H]2CO)O[C@H](CO)[C@@H](O)[C@@H]1O (stereo partly shown) [chitohexaose] here?
The Kd was 2000 ± 1000 µM.
